Among the data in US20220340875A1, “METHODS OF CULTURING AND/OR EXPANDING STEM CELLS AND/OR LINEAGE COMMITTED PROGENITOR CELLS USING AMIDO COMPOUNDS” (IDEAYA BIOSCIENCES, INC., priority 2018, published 2022) are IC50 values, retold here.

The target of the experiment is T1, hAhR (Homo sapiens, UniProt P35869).
T1 construct: Stably integrated DRE-luciferase cell lines were generated by transducing the both cell lines with Cignal XRE luciferase reporter (Qiagen) lentiviral particles; endogenous in cells
T1 sequence (P35869 11-848): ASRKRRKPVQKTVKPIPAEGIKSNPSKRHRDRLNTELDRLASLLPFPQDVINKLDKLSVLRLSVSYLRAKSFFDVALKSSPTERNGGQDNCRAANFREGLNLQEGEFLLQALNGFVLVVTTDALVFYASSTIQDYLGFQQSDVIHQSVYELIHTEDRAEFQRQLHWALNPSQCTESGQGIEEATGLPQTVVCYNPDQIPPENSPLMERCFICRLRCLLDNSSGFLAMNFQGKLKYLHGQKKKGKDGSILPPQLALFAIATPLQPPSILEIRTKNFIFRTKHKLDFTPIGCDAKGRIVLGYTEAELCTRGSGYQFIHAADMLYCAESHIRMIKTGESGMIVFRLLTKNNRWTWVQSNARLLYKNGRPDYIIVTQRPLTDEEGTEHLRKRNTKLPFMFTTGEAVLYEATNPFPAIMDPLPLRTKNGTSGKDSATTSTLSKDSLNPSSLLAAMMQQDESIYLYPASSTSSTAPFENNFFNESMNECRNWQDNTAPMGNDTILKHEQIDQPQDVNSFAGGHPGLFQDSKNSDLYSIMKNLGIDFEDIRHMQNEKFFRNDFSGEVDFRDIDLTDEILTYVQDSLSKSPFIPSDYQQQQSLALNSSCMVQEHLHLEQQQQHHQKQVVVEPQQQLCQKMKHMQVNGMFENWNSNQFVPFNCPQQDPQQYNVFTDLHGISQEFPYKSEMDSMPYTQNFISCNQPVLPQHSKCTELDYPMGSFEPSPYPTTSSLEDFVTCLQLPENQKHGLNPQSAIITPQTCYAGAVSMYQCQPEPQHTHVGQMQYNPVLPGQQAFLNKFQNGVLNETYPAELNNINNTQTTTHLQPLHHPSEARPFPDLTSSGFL
In words: AhR DRE-luciferase reporter transcriptional assay, antagonist mode (TCDD-induced). It is filed as cell-based. Conditions: HEPG2 DRE-Luc cells, 3 nM TCDD, 24 hour incubation, relative IC50. In short, it runs like this:
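HepG2 cells carrying a stably integrated DRE-luciferase reporter, in OptiMEM with 0.5% FBS; semi-log compound doses added with 3 nM TCDD, 24 h incubation, firefly luciferase read-out. Percent maximal activity normalised between vehicle ± TCDD; relative IC50 taken as half-reduction between curve plateaus.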
As usually defined, the IC50 is the point on the concentration scale where inhibition reaches its midpoint. Read a low IC50 as higher potency. With `Cc1c(-c2ccc3cc(C(F)(F)F)ccc3n2)ccc(N(C)C(=O)c2ccnn2C)c1F` [Example 006, N-(2-fluoro-3-methyl-4-(6-(trifluoromethyl)quinolin-2-yl)phenyl)-N,1-dimethyl-1H-pyrazole-5-carboxamide], the 50% inhibitory concentration (IC50) lay in the range of 1000 to 10000 nM.

Consider `Cc1cc(-c2ccc3ccn(C)c3c2)ccc1NC(=O)c1ccnn1C` [Example 082, 1-Methyl-N-(2-methyl-4-(1-methyl-1H-indol-6-yl)phenyl)-1H-pyrazole-5-carboxamide], for which the IC50 lay in the range of 500 to 1000 nM.

The molecule `Cc1cc(-c2ccc3cc(Cl)ccc3n2)ccc1NC(=O)c1ccnn1C` [Example 065, N-(4-(6-Chloroquinolin-2-yl)-2-methylphenyl)-1-methyl-1H-pyrazole-5-carboxamide] came in with an IC50 of 200 to 500 nM.

Consider `Cc1cc(-c2ncc3nc(C(F)(F)F)cc(C)c3n2)ccc1N(C)C(=O)c1ccnn1CCN1CCCC1` [Example 182, N-methyl-N-(2-methyl-4-(8-methyl-6-(trifluoromethyl)pyrido[3,2-d]pyrimidin-2-yl)phenyl)-1-(2-(pyrrolidin-1-yl)ethyl)-1H-pyrazole-5-carboxamide], for which the IC50 is < 200 nM.

Regarding `COc1cccc2ccc(-c3ccc(NC(=O)c4ccnn4C)c(C)c3)nc12` [Example 056, N-(4-(8-methoxyquinolin-2-yl)-2-methylphenyl)-1-methyl-1H-pyrazole-5-carboxamide], the IC50 is 500 to 1000 nM.

With `Cc1cc(-c2ccc3cnccc3c2)ccc1NC(=O)c1ccnn1C` [Example 021, N-(4-(Isoquinolin-6-yl)-2-methylphenyl)-1-methyl-1H-pyrazole-5-carboxamide], the IC50 was in the range of 500 to 1000 nM.

`Cc1cc(-c2ccc3cc(OC(F)(F)F)ccc3n2)ccc1NC(=O)c1ccnn1C` [Example 011, 1-methyl-N-(2-methyl-4-(6-(trifluoromethoxy)quinolin-2-yl)phenyl)-1H-pyrazole-5-carboxamide] gave an IC50 of 200 to 500 nM.

Take `Cc1cc(NC(=O)c2c(C)cnn2C)c(F)cc1-c1ccc2cc(C(F)(F)F)ccc2n1` [Example 207, N-(2-fluoro-5-methyl-4-(6-(trifluoromethyl)quinolin-2-yl)phenyl)-1,4-dimethyl-1H-pyrazole-5-carboxamide]: the IC50 was in the range of 200 to 500 nM.

`Cc1cc(-c2ccc3cncc(C)c3n2)ccc1NC(=O)c1ccnn1C` [Example 059, 1-methyl-N-(2-methyl-4-(8-methyl-1,6-naphthyridin-2-yl)phenyl)-1H-pyrazole-5-carboxamide] registered an IC50 of 200 to 500 nM.

For `Cc1cc(-c2ccc3ccc(C(F)(F)F)cc3n2)ccc1NC(=O)c1ccnn1C` [Example 078, 1-methyl-N-(2-methyl-4-(7-(trifluoromethyl)quinolin-2-yl)phenyl)-1H-pyrazole-5-carboxamide], the IC50 fell in the range of 200 to 500 nM.

Take `Cc1cc(-c2ncc3cc(C(F)(F)F)ccc3n2)ccc1N(C)C(=O)c1ncccc1C` [Example 118, N,3-dimethyl-N-(2-methyl-4-(6-(trifluoromethyl)quinazolin-2-yl)phenyl)picolinamide]: the IC50 lay within 200 to 500 nM.

`Cc1cc(-c2ccc3cc(F)cc(Cl)c3n2)ccc1NC(=O)c1ccnn1C` [Example 049, N-(4-(8-chloro-6-fluoroquinolin-2-yl)-2-methylphenyl)-1-methyl-1H-pyrazole-5-carboxamide] came in with an IC50 of 200 to 500 nM.

As for `Cc1cc(C(F)(F)F)nc2cnc(-c3ccc(N(C)C(=O)c4ccnn4C)c(F)c3)nc12` [Example 162, N-(2-fluoro-4-(8-methyl-6-(trifluoromethyl)pyrido[3,2-d]pyrimidin-2-yl)-phenyl)-N,1-dimethyl-1H-pyrazole-5-carboxamide], the IC50 was < 200 nM.

On to `Cc1cc(-c2ncc3nc(C(F)(F)F)cc(C)c3n2)c(F)cc1N(C)C(=O)c1ccnn1C` [Example 181, N-(5-fluoro-2-methyl-4-(8-methyl-6-(trifluoromethyl)pyrido[3,2-d]pyrimidin-2-yl)phenyl)-N,1-dimethyl-1H-pyrazole-5-carboxamide], for which the IC50 is < 200 nM.

Molecule `Cc1cc(-c2ccc3cc(F)cc(C#N)c3n2)ccc1NC(=O)c1ccnn1C` [Example 054, N-(4-(8-cyano-6-fluoroquinolin-2-yl)-2-methylphenyl)-1-methyl-1H-pyrazole-5-carboxamide] came in with an IC50 of 200 to 500 nM.

`Cc1cc(-c2ccc3nc(C(F)(F)F)ncc3n2)ccc1NC(=O)c1ccnn1C` [Example 139, 1-methyl-N-(2-methyl-4-(2-(trifluoromethyl)pyrido[3,2-d]pyrimidin-6-yl)phenyl)-1H-pyrazole-5-carboxamide] came in with an IC50 of 500 to 1000 nM.

Turning to `Cc1cc(C(=O)Nc2ccc(-c3ncc4nc(OC(F)(F)F)cc(C)c4n3)cc2C)ccn1` [Example 160, 2-methyl-N-(2-methyl-4-(8-methyl-6-(trifluoromethoxy)pyrido[3,2-d]-pyrimidin-2-yl)phenyl)isonicotinamide], the IC50 was < 200 nM.

For the molecule `Cc1cc(-c2nc(N)c3nc(C(F)(F)F)cc(C)c3n2)ccc1N(C)C(=O)c1ccnn1C` [Example 154, N-(4-(4-amino-8-methyl-6-(trifluoromethyl)pyrido[3,2-d]pyrimidin-2-yl)-2-methylphenyl)-N,1-dimethyl-1H-pyrazole-5-carboxamide], the IC50 was < 200 nM.

As to `Cc1cc(-c2ccc3cc(N4CCOCC4)ccc3n2)ccc1NC(=O)c1ccnn1C` [Example 071, 1-methyl-N-(2-methyl-4-(6-morpholinoquinolin-2-yl)phenyl)-1H-pyrazole-5-carboxamide], the half-maximal inhibitory concentration (IC50) lay within 200 to 500 nM.

Molecule `Cc1cc(-c2ccc3cc(F)ccc3n2)ccc1NC(=O)c1cnccn1` [Example 032, N-(4-(6-fluoroquinolin-2-yl)-2-methylphenyl)pyrazine-2-carboxamide] yielded an IC50 of 500 to 1000 nM.

Take `Cc1cc(-c2ncc3cc(F)ccc3n2)ccc1NC(=O)c1ccnn1C` [Example 107, N-(4-(6-fluoroquinazolin-2-yl)-2-methylphenyl)-1-methyl-1H-pyrazole-5-carboxamide]: the IC50 is < 200 nM.

`Cc1cc(-c2ncc3cc(C(F)(F)F)ccc3n2)ccc1N(C)C(=O)c1ccnn1C` [Example 140, N,1-Dimethyl-N-(2-methyl-4-(6-(trifluoromethyl)quinazolin-2-yl)phenyl)-1H-pyrazole-5-carboxamide]: the IC50 is < 200 nM.

On to `Cc1cc(-c2ncc3cc(C(F)(F)F)ccc3n2)ccc1N(C)C(=O)c1ncn[nH]1` [Example 134, N-methyl-N-(2-methyl-4-(6-(trifluoromethyl)quinazolin-2-yl)phenyl)-1H-1,2,4-triazole-5-carboxamide], for which the IC50 was in the range of 200 to 500 nM.

Take `Cc1cc(-c2ncc3cc(C(F)(F)F)cc(C)c3n2)ccc1NC(=O)c1ccnn1C` [Example 110, 1-methyl-N-(2-methyl-4-(8-methyl-6-(trifluoromethyl)quinazolin-2-yl)phenyl)-1H-pyrazole-5-carboxamide]: the IC50 is < 200 nM.

`Cc1cc(-c2ccc3cnccc3n2)ccc1NC(=O)c1ccnn1C` [Example 013, 1-methyl-N-(2-methyl-4-(1,6-naphthyridin-2-yl)phenyl)-1H-pyrazole-5-carboxamide] registered an IC50 of 1000 to 10000 nM.

Turning to `Cc1cc(-c2ccc3cc(F)ccc3n2)c(F)cc1NC(=O)c1ccnn1C` [Example 067, N-(5-fluoro-4-(6-fluoroquinolin-2-yl)-2-methylphenyl)-1-methyl-1H-pyrazole-5-carboxamide], the IC50 was 500 to 1000 nM.

In the case of `Cc1cc(-c2ccc3cncc(C)c3c2)ccc1NC(=O)c1ccnn1C` [Example 061, 1-methyl-N-(2-methyl-4-(4-methylisoquinolin-6-yl)phenyl)-1H-pyrazole-5-carboxamide], the IC50 is 500 to 1000 nM.

Consider `Cc1c(N(C)C(=O)c2ccnn2C)ccc(-c2ncc3nc(C(F)(F)F)cc(C)c3n2)c1F` [Example 175, N-(3-fluoro-2-methyl-4-(8-methyl-6-(trifluoromethyl)pyrido[3,2-d]pyrimidin-2-yl)phenyl)-N,1-dimethyl-1H-pyrazole-5-carboxamide], for which the IC50 was < 200 nM.

As to `Cc1cc(C(=O)N(C)c2ccc(-c3ncc4nc(OC(F)(F)F)cc(C)c4n3)cc2C)ccn1` [Example 161, N,2-dimethyl-N-(2-methyl-4-(8-methyl-6-(trifluoromethoxy)pyrido[3,2-d]pyrimidin-2-yl)phenyl)isonicotinamide], the IC50 was in the range of 200 to 500 nM.

`Cc1cc(-c2ccc3cc(F)ccc3n2)ccc1NC(=O)c1cn(C)cn1` [Example 035, N-(4-(6-fluoroquinolin-2-yl)-2-methylphenyl)-1-methyl-1H-imidazole-4-carboxamide] had an IC50 of 1000 to 10000 nM.

With `CC(=O)N(C)c1ccc(-c2ncc3cc(C(F)(F)F)ccc3n2)cc1C` [Example 130, N-methyl-N-(2-methyl-4-(6-(trifluoromethyl)quinazolin-2-yl)phenyl)acetamide], the IC50 was < 200 nM.
